Results from US20150050410A1, “COMPOUNDS, COMPOSITIONS, AND METHODS FOR MODULATING SWEET TASTE” (Chromocell Corporation, priority 2013, published 2015).

System: perception of sweet taste, in an aqueous solution, in humans
Assay: Inherent sweetness assessment, difference from control "sip and spit" method
Assay type: in vivo
Conditions: no sweetener
Description: The taste test panelists used in the Examples 1-3 were selected using a sensory acuity screening program. Candidate taste panelists were recruited, with prescreening and personal interviews, and were assessed and for their ability to detect, recognize and differentiate basic taste attributes or mixtures thereof as part of a standardized acuity test. This included basic tastes of sweet, sour, salty, bitter and umami, as well as having the capacity to focus on specific aspects of sensory character such as ranking the various tastes perceived and identifying the basic tastes presented at threshold levels.
The aqueous sucrose solutions were prepared by adding, sucrose (by weight), to water to achieve the desired concentration.
Compounds were first prepared as a 500-fold concentrated stock solution in 100% ethanol. These concentrated stocks were then added to water to result in a final ethanol concentration of 0.2%. The control (including positive control) samples were also normalized to 0.2% ethanol. This level of ethanol was not seen to contribute any perceived sweetness.
The intrinsic effect of test compounds on the perception of sweet taste, in an aqueous solution, in humans was evaluated using a difference from control “sip and spit” method employing a verbal category scale.
In this method, panelists (n=12) evaluate one pair of samples at a time—one sample contains water plus compound (i.e. test) while the other contains water without compound (i.e. control). Panelists were instructed to first taste the un-blinded control followed by the test sample and asked to rate the size of sweetness difference between the test and control sample, using a 6 point verbal category scale:
Verbal Category Scale • No difference • Slight difference • Slight/moderate difference • Moderate difference • Moderate/large difference • Very large difference […]

**Q.** How did the “Correlated Inherent Sweetness Assessment” value (compound 10 ppm in water) turn out when `COc1ccc(C2CC(=O)c3c(O)cccc3O2)cc1O` (racemic) [Compound 1, 5-hydroxy-2-(3-hydroxy-4-methoxyphenyl)chroman-4-one] was run?
**A.** 0% sucrose

**Q.** And the “Correlated Inherent Sweetness Assessment” value (compound 15 ppm in water)?
**A.** 0%-0.5%

**Q.** And the “Correlated Inherent Sweetness Assessment” value (compound 25 ppm in water)?
**A.** 0%-0.5%
